From the NIST ThermoML archive (doi:10.1021/acs.jced.5b00303)

Details: Pendant drop shape

CCCCn1cc[n+](C)c1.N#C[B-](C#N)(C#N)C#N [1-butyl-3-methyl-1H-imidazolium tetracyanoborate]
Details	surface tension liquid-gas [mN/m]
283.23 K	45.23
293.23 K	44.64
303.3 K	43.65
313.24 K	42.62
323.24 K	41.71
333.2 K	40.81
343.22 K	39.87
353.3 K	39.08

CCn1cc[n+](C)c1.N#C[B-](C#N)(C#N)C#N [1-ethyl-3-methylimidazolium tetracyanoborate]
Details	surface tension liquid-gas [mN/m]
283.1 K	49.66
293.26 K	48.72
303.35 K	47.57
313.29 K	46.45
323.2 K	45.67
333.09 K	44.87
343.12 K	44.04
353.45 K	43.4

CCCCCCCCn1cc[n+](C)c1.N#CC(=C=[N-])C#N [1-methyl-3-octylimidazolium tricyanomethanide]
Details	surface tension liquid-gas [mN/m]
283.28 K	40.07
293.21 K	39.03
303.32 K	38.38
313.21 K	37.65
323.12 K	36.89
333.1 K	36.09
343.16 K	35.31
353.03 K	34.89

CCn1cc[n+](C)c1.N#C[C-](C#N)C#N [1-ethyl-3-methyl-1H-imidazolium tricyanomethanide]
Details	surface tension liquid-gas [mN/m]
283.18 K	51.1
293.25 K	50.4
303.24 K	49.39
313.1 K	48.62
323.08 K	47.83
333.17 K	47.19
343.09 K	46.55
353.36 K	44.68

CCCCCCCCn1cc[n+](C)c1.N#C[B-](C#N)(C#N)C#N [1-methyl-3-octylimidazolium tetracyanoborate]
Details	surface tension liquid-gas [mN/m]
283.23 K	38.64
293.32 K	38.01
303.3 K	36.81
313.27 K	36.18
323.23 K	35.19
333.18 K	34.15
343.21 K	33.44
353.28 K	32.41

CCCCCC[n+]1ccn(C)c1.N#C[C-](C#N)C#N [3-hexyl-1-methylimidazolium tricyanomethanide]
Details	surface tension liquid-gas [mN/m]
283.23 K	44.44
293.35 K	43.55
303.33 K	42.88
313.26 K	42.09
323.25 K	41.49
333.18 K	40.8
343.11 K	39.91
353.53 K	39.07

CCCCCCn1cc[n+](C)c1.N#C[B-](C#N)(C#N)C#N [1-hexyl-3-methylimidazolium tetracyanoborate]
Details	surface tension liquid-gas [mN/m]
283.27 K	41.99
293.29 K	41.32
303.27 K	40.4
313.29 K	39.39
323.26 K	38.6
333.2 K	37.61
343.18 K	37
353.25 K	35.86

Cn1cc[n+](C)c1.N#C[B-](C#N)(C#N)C#N [1,3-dimethylimidazolium tetracyanoborate]
Details	surface tension liquid-gas [mN/m]
283.19 K	35.44
293.24 K	34.74
303.28 K	33.67
313.26 K	33.07
323.17 K	32.05
333.17 K	31.37
343.13 K	30.6
353.24 K	29.98
